Experiment [1] concerns UT7. Kind of experiment: Efficacy in proliferation of the UT7/TPO-R cell line and the value is reported as %TPO. The class given is functional, Homo sapiens.
In experiment [2] the test system is UT7. The experiment can be described thus: Effective concentration for proliferation of UT7/TPO-R cell line. The class given is functional, cell-based. The note with it: Homo sapiens.
Experiment [3] is described as follows: Efficacy in activation of luciferase expression in BAF-3/TPO-Rluc cell line and the value is reported as %TPO. In kind it is functional, Homo sapiens.
Experiment [4] is described as follows: (§1) Activation of luciferase expression in BAF-3/TPO-Rluc cell line. In kind it is functional, cell-based. The following applies: Homo sapiens.
A short description of experiment [5]: Efficacy in activation of luciferase expression in UT-7/TPO-R cell line and the value is reported as % salicylaldehyde thio-semicarbazone-thrombopoietin (TPO). In kind it is functional, Homo sapiens.
Experiment [6] in a line: Agonistic activity against proliferation of UT-7/TPO-R cell line. The class given is functional. The following applies: Homo sapiens, UT7/TPO-R.
The nature of experiment [7]: Activation of luciferase expression in the proliferation of UT7/TPO-R cell line. In kind it is functional. The note with it: Homo sapiens.
Experiment [8] is described as follows: as §1. The following applies: Homo sapiens. The class given is cell-based.

Bounds are passed on as bounds.

Take `Cc1ccc(-c2cccc(-c3nc4c(ccc5cc(S(=O)(=O)O)cc(O)c54)[nH]3)c2O)cc1C`: the TPO turned out to be 70% in the experiment on UT7 [1] and 36% in experiment [3]. In addition, the EC50 – broadly, the concentration that produces a half-maximal response – came to 1 µM in the experiment on UT7 [2] and 1.2 µM in experiment [4].
In the case of `O=S(=O)(O)c1cc(O)c2c(ccc3[nH]c(-c4c(O)ccc5ccccc45)nc32)c1`, the TPO in the experiment with UT7 [1] was less than 10%; in experiment [3], 11%. Moreover, the EC50 in experiment [4] was 26 µM.
Consider `O=S(=O)(O)c1cc2[nH]c(-c3c(O)ccc4ccccc34)nc2c2c(O)cccc12`, for which the TPO is listed as less than 10% with UT7 [1] and 52% in experiment [3]. The same molecule had a concentration giving a half-maximal response (EC50) in experiment [4] of 35 µM.
On to `CC(C)(C)c1ccc(-c2cccc(-c3nc4c(ccc5cc(C(=O)O)cc(O)c54)[nH]3)c2)cc1`, for which the TPO in experiment [5] came out at 60%. Moreover, the concentration for a half-maximal effect (EC50) in experiment [6] came to 0.3 µM.
For `Cc1ccc(-n2[nH]c(C)c(/N=N/c3c(O)cc(S(=O)(=O)O)c4ccccc34)c2=O)cc1C`, the EC50 in experiment [7] is 0.04 µM. This counts as double-digit nanomolar.
For the molecule `O=S(=O)(O)c1cc2[nH]c(-c3ccc4ccccc4c3O)nc2c2c(O)cccc12`, the TPO in the experiment with UT7 [1] was less than 10%; in experiment [3], 28%. In experiment [4], this molecule gave an EC50 of 4.8 µM.
`Cc1ccc(-c2cccc(/C=N/N=C(\S)Nc3cccc(C(=O)O)c3)c2O)cc1C`: the EC50 in experiment [7] amounted to 0.03 µM.
Turning to `O=S(=O)(O)c1cc(O)c2c(ccc3[nH]c(-c4ccc5ccccc5c4O)nc32)c1`, the values for the TPO (in the experiment with UT7 [1]; in experiment [3]) were less than 10% and 27%, respectively. Moreover, the midpoint of the response in experiment [4], the EC50, lay at 9.7 µM.
The molecule `CC(C)(C)c1ccc(-c2cccc(-c3nc4c(ccc5cc(S(=O)(=O)O)cc(O)c54)[nH]3)c2)cc1` registered an EC50 in experiment [8] of 0.08 µM. Besides, in experiment [3], the TPO is listed as 100%.

For the origin of these results see ChEMBL document CHEMBL1135540, “Identification of a pharmacophore for thrombopoietic activity of small, non-peptidyl molecules. 2. Rational design of naphtho[1,2-d]imidazole thrombopoietin mimics” (J Med Chem, 2002).
